{"source": "the supplement of paper PMC11208160"}
{"test": "recombinant barcode read abundance after kanamycin selection (control-corrected) (log10(CPM+1)); higher = more efficient recombination; sequences stand for … in AGTGCAGAGAAAATCGGCCAGTTTTCTCTGCCTGCAGTCCGCATGCCGT…AGATTTATGCAGCGGACTGCCTTTCTCCCAAAGTGATAAACCGGACAGTATCATGGACCGGTTTTCCCGGTAATCCGTATTTGCAAGGTTGGTTTCACT; site = the 11-nt target", "procedure,_shortened": "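Each value is log10(CPM+1). It describes recombination efficiency, taken as averaged, control-corrected counts per million of barcodes at recombinant junctions. The pooled E. coli library paired targets with IS621 bridge RNA target-binding loops, was co-electroporated with a donor plasmid, and was plated twice on chloramphenicol/ampicillin LB agar (control) and twice on chloramphenicol/ampicillin/kanamycin containing 0.1 mM IPTG.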"}
{"sequence": "GCGTCGTCTTGGGTTCTAACCTGTTGCCT (site GCGTCGTCTAG)", "recombinant barcode read abundance (log10)": 0.0822}
{"sequence": "GCGTCGTCTTGGGTTCTAACCTGTTGCCT (site GCTTCGTCTAG)", "recombinant barcode read abundance (log10)": 0.229}
{"sequence": "GCGTCTCCTTGGGTTCTAACCTGTTGCAT (site GCGACTCCTAT)", "recombinant barcode read abundance (log10)": 0.209}
{"sequence": "GCGTCTCCTTGGGTTCTAACCTGTTGCAT (site GCGCCTCCTAT)", "recombinant barcode read abundance (log10)": 0.012}
{"sequence": "GCGTCTCCTTGGGTTCTAACCTGTTGCAT (site GCGGCTCCTAT)", "recombinant barcode read abundance (log10)": 0.0731}
{"sequence": "GCGTCTCCTTGGGTTCTAACCTGTTGCAT (site GCGTCTCCTAT)", "recombinant barcode read abundance (log10)": 0.335}
{"sequence": "GCGTTTGCTTGGGTTCTAACCTGTTGCCT (site GAGTTTGCTAG)", "recombinant barcode read abundance (log10)": 0.106}
{"sequence": "GCGTTTGCTTGGGTTCTAACCTGTTGCCT (site GCGTTTGCTAG)", "recombinant barcode read abundance (log10)": 1.01}
{"sequence": "GCGTTTGCTTGGGTTCTAACCTGTTGCCT (site GGGTTTGCTAG)", "recombinant barcode read abundance (log10)": 0.0501}
{"sequence": "GCGTTTGCTTGGGTTCTAACCTGTTGCCT (site GTGTTTGCTAG)", "recombinant barcode read abundance (log10)": 0}
{"sequence": "GCTAACACTTGGGTTCTAACCTGTTGCCT (site ACTAACACTAG)", "recombinant barcode read abundance (log10)": 0.2}
{"sequence": "GCTAACACTTGGGTTCTAACCTGTTGCCT (site CCTAACACTAG)", "recombinant barcode read abundance (log10)": 0.153}
{"sequence": "GCTAACACTTGGGTTCTAACCTGTTGCCT (site GCTAACACTAG)", "recombinant barcode read abundance (log10)": 1.37}
{"sequence": "GCTAACACTTGGGTTCTAACCTGTTGCCT (site TCTAACACTAG)", "recombinant barcode read abundance (log10)": 0.075}
{"sequence": "GCTAACCCTTGGGTTCTAACCTGTTGCGT (site GCGAACCCTCC)", "recombinant barcode read abundance (log10)": 0}
{"sequence": "GCTAACCCTTGGGTTCTAACCTGTTGCGT (site GCTAACCCTAC)", "recombinant barcode read abundance (log10)": 3.05}
{"sequence": "GCTAGGACTTGGGTTCTAACCTGTTGCTG (site CGGTCTGCTAT)", "recombinant barcode read abundance (log10)": 0.163}
{"sequence": "GCTAGGACTTGGGTTCTAACCTGTTGCTG (site GCTAGGACTCA)", "recombinant barcode read abundance (log10)": 2.12}
{"sequence": "GCTCAACCTTGGGTTCTAACCTGTTGCCT (site GATCAACCTAG)", "recombinant barcode read abundance (log10)": 0.796}
{"sequence": "GCTCAACCTTGGGTTCTAACCTGTTGCCT (site GCTCAACCTAG)", "recombinant barcode read abundance (log10)": 1.6}
{"sequence": "GCTCAACCTTGGGTTCTAACCTGTTGCCT (site GGTCAACCTAG)", "recombinant barcode read abundance (log10)": 0.176}
{"sequence": "GCTCAACCTTGGGTTCTAACCTGTTGCCT (site GTTCAACCTAG)", "recombinant barcode read abundance (log10)": 0.126}
{"sequence": "GCTCACTCTTGGGTTCTAACCTGTTGCTT (site GCTCACTCTAA)", "recombinant barcode read abundance (log10)": 1.63}
{"sequence": "GCTCACTCTTGGGTTCTAACCTGTTGCTT (site GTTCCCTCTAA)", "recombinant barcode read abundance (log10)": 0.0084}
{"sequence": "GCTCAGCCTTGGGTTCTAACCTGTTGCCT (site GCTCAGACTAG)", "recombinant barcode read abundance (log10)": 0.0954}
{"sequence": "GCTCAGCCTTGGGTTCTAACCTGTTGCCT (site GCTCAGCCTAG)", "recombinant barcode read abundance (log10)": 1.14}
{"sequence": "GCTCAGCCTTGGGTTCTAACCTGTTGCCT (site GCTCAGGCTAG)", "recombinant barcode read abundance (log10)": 0.16}
{"sequence": "GCTCAGCCTTGGGTTCTAACCTGTTGCCT (site GCTCAGTCTAG)", "recombinant barcode read abundance (log10)": 0.072}
{"sequence": "GCTCCGTCTTGGGTTCTAACCTGTTGCTT (site ACTCCGTCTTA)", "recombinant barcode read abundance (log10)": 0.047}
{"sequence": "GCTCCGTCTTGGGTTCTAACCTGTTGCTT (site GCTCCGTCTAA)", "recombinant barcode read abundance (log10)": 0.644}
{"sequence": "GCTCGACCTTGGGTTCTAACCTGTTGCTG (site CGCTCCTCTAT)", "recombinant barcode read abundance (log10)": 0.18}
{"sequence": "GCTCGACCTTGGGTTCTAACCTGTTGCTG (site GCTCGACCTCA)", "recombinant barcode read abundance (log10)": 1.68}
{"sequence": "GCTCGTACTTGGGTTCTAACCTGTTGCAT (site GCTCGTACTAT)", "recombinant barcode read abundance (log10)": 1.47}
{"sequence": "GCTCGTACTTGGGTTCTAACCTGTTGCAT (site TCGCGTACTAT)", "recombinant barcode read abundance (log10)": 0.0401}
{"sequence": "GCTGAGACTTGGGTTCTAACCTGTTGCCG (site GATGAGACTCG)", "recombinant barcode read abundance (log10)": 0.218}
{"sequence": "GCTGAGACTTGGGTTCTAACCTGTTGCCG (site GCTGAGACTCG)", "recombinant barcode read abundance (log10)": 2.53}
{"sequence": "GCTGGACCTTGGGTTCTAACCTGTTGCAT (site GCTCGTCCTAT)", "recombinant barcode read abundance (log10)": 0.0463}
{"sequence": "GCTGGACCTTGGGTTCTAACCTGTTGCAT (site GCTGGACCTAT)", "recombinant barcode read abundance (log10)": 2.18}
{"sequence": "GCTGGCCCTTGGGTTCTAACCTGTTGCCT (site GATGGCCCTAG)", "recombinant barcode read abundance (log10)": 0.0865}
{"sequence": "GCTGGCCCTTGGGTTCTAACCTGTTGCCT (site GCTGGCCCTAG)", "recombinant barcode read abundance (log10)": 1.18}
{"sequence": "GCTGGCCCTTGGGTTCTAACCTGTTGCCT (site GGTGGCCCTAG)", "recombinant barcode read abundance (log10)": 0.0479}
{"sequence": "GCTGGCCCTTGGGTTCTAACCTGTTGCCT (site GTTGGCCCTAG)", "recombinant barcode read abundance (log10)": 0.481}
{"sequence": "GCTGGTCCTTGGGTTCTAACCTGTTGCCT (site GCAGGTCCTAG)", "recombinant barcode read abundance (log10)": 0.311}
